Source: PMC7046148 (Scientific Reports, 2020)

Key:
SALL4^G416A = biological target: T1, SALL4^G416A (Homo sapiens, UniProt Q9UJQ4, G416A); assay: SALL4 MFI by high content imaging, XCL-1 SALL4^G416A hiPSCs; assay type: cell-based; conditions: SALL4^G416A hiPSC clone, 8 h of treatment
T1 construct: parental hiPSCs were engineered to express a homozygous G416A mutation in the endogenous SALL4 locus; endogenous in cells; host or cells: XCL-1 SALL4^G416A hiPSC clone (1E6), CRISPR/Cas9 knock-in at the endogenous locus
Description: (§1) High content imaging analysis of SALL4 immunofluorescence with DAPI counterstaining in hiPSCs. […] Data represent the mean +/− SEM from 2 independent experiments.

XCL-1 hiPSC SALL4^G416A [1] = assay: LPM differentiation assay (FOXF1 high content imaging), XCL-1 SALL4^G416A clone; conditions: for IC50: Homo sapiens, 48 h, read-out: IC50 (±SEM) in LPM differentiation assay
Description: (§8) hiPSCs (Gibco or XCL-1 clones) were grown in mTeSR-1 on Matrigel, passaged into small clumps with Versene (4.5 min under normal culture conditions), counted as a single-cell suspension as described above, and seeded as small clumps at approximately 10,000 cells/well (30,000 cells/cm^2, ~15% confluence) in 100 µL mTeSR1 on Matrigel-coated µClear® 96-well plates (Greiner) for 1 d under normal culture conditions. On the day after seeding, the medium was replaced with 100 µL/well of mTeSR-1 (control) or APEL2 + GSKi containing either DMSO or diluted compounds (for a final DMSO concentration of 0.2%). The same conditions were replenished the following day for a total of 2 d of differentiation, and the following day (3 d after seeding), the medium was aspirated, and hiPSCs were fixed in 10% NBF for 15 min at room temperature.
(§9) Immunofluorescence staining was carried out by fixing/permeabilizing cells overnight in blocking buffer containing 3% BSA (Sigma) in DPBS-T, which contains DPBS + Ca^2+//Mg^2+ with 0.3% Triton-X100 (Sigma). Fixed and permeabilized cells were incubated in primary antibodies diluted (as noted in Table 1) in antibody buffer, consisting of 1% BSA in DPBS-T, overnight at 4 °C.
(§10) Cells were washed in blocking buffer for >6 hours at 4 °C and subsequently incubated in secondary antibody diluted in antibody buffer overnight at 4 °C. Secondary antibodies were washed out in antibody buffer for >4 h at 4 °C, and hiPSCs were counterstained with DAPI (Fisher) at 10 µg/mL in DPBS-T for 2 h. hiPSCs were washed in DPBS-T for >2 h at 4 °C, and immediately before imaging, the DPBS-T was replaced with DPBS. […] Chemical dose-response experiments and experiments examining the time-course of marker expression during LPM differentiation were imaged at 10X magnification using the Cellomics ArrayScan or CellInsight Cx7 LZR High Content Screening Platform and HCS Studio Cell Analysis Software (Thermo Fisher). An artificial threshold was uniformly applied to all images to generate the percentage of DAPI+ nuclei that stained positively for FOXF1 or NANOG. Thresholding for FOXF1 and T was performed relative to undiffer-entiated hiPSCs, and thresholding for SALL4 and OCT4 was performed relative to a non-expressing cell type (human primary endothelial cells). Settings for image acquisition and processing were uniformly applied between XCL-1 clones. […] Experiments were repeated in quadruplicate unless otherwise stated, and data are presented as mean ± SEM. Nonlinear regression analysis was performed using the 4-parameter [inhibitor]-vs-response curve fitting algorithm in Prism (GraphPad).
In addition, XCL-1 hiPSCs were engineered with CRISPR/Cas9 to express a homozygous SALL4 G416A mutation (hereafter referred to as the SALL4^G416A clone), and the homozygous SALL4 G416A mutation was confirmed by next-generation sequencing (Supplementary Fig. 2).

human SALL4 = biological target: T2, human SALL4 (Homo sapiens, UniProt Q9UJQ4); assay: Immunoblot of SALL4 degradation in Lenti-x 293 CRBN-/- cells expressing human CRBN variants; assay type: cell-based
T2 construct: expressed in transfected cells; host or cells: Lenti-x 293 CRBN CRISPR KO (CRBN-/-) cells stably expressing human SALL4, transiently transfected with FLAG-CRBN variants
Description: SALL4 were transiently transfected with vectors expressing GFP or human CRBN variants and treated with
CRBN-/- cells transfected with empty vector were used as a negative control. The cells were then lysed and
characterized by immunoblotting analysis for SALL4, ZFP91, GFP, CRBN, and β-actin.
CRBN CRISPR KO (CRBN -/-) cells were maintained in Dulbecco’s Modified Eagle’s medium (DMEM;
Invitrogen) supplemented with 10% fetal bovine serum (FBS; Invitrogen). All cell lines were confirmed
mycoplasma-negative using the MycoAlert Mycoplasma Detection Kit (Lonza).
CRBN-/- cells stably expressing human SALL4 was transiently transfected with 4 µg of pcDNA3-GFP, pcDNA3-
FLAG-CRBN WT (isoform 1),pcDNA3-FLAG-CRBN E377V (isoform 1) or pcDNA3-FLAG-CRBN V388I (isoform
Cells were then harvested and lysed, and
whole cell extract was subjected to immunoblotting analysis. Cells were washed with ice-cold 1X PBS and
lysed in 50mM Tris-HCl [pH 7.6], 150 mM NaCl, 1% Triton X-100, and 1x Complete ULTRA protease inhibitor
cocktail and PhosSTOP phosphatase inhibitor cocktail. Whole cell extracts were collected after
centrifugation at top speed for 10 minutes, resolved by sodium dodecyl sulfate polyacrylamide gel
electrophoresis, transferred onto a nitrocellulose membrane using the Turboblot system (Bio-Rad), and
probed with the indicated primary antibodies. Bound antibodies were detected with IRDye®-680 or -800 […]

XCL-1 hiPSC CRBN Mock [2] = assay: LPM differentiation assay (FOXF1 high content imaging), XCL-1 CRBN Mock clone; assay type: cell-based; conditions: Homo sapiens, 48 h, % FOXF1+ cells after 2 d in APEL2+GSKi, read-out: IC50 (±SEM) in LPM differentiation assay
Description: On the day after seeding, the medium was replaced with 100 µL/well of mTeSR-1 (control) or APEL2 + GSKi containing either DMSO or diluted compounds (for a final DMSO concentration of 0.2%). The same conditions were replenished the following day for a total of 2 d of differentiation, and the following day (3 d after seeding), the medium was aspirated, and hiPSCs were fixed in 10% NBF for 15 min at room temperature.
as §9, §10

Gibco hiPSCs = assay: LPM differentiation assay (FOXF1 high content imaging), Gibco hiPSCs; conditions: Homo sapiens, 48 h, read-out: IC50 (±SEM) in LPM differentiation assay
Description: as §8, §9, §10

XCL-1 hiPSC SALL4 Mock [3] = assay: LPM differentiation assay (FOXF1 high content imaging), XCL-1 SALL4 Mock clone; conditions: Homo sapiens, 48 h, read-out: IC50 (±SEM) in LPM differentiation assay
Description: as §8, §9, §10

SALL4 [4] = biological target: T3, SALL4 (Homo sapiens, UniProt Q96SW2+Q9UJQ4); assay: SALL4 MFI by high content imaging, XCL-1 SALL4 mock hiPSCs; assay type: cell-based; conditions: SALL4 mock control hiPSCs, 8 h of treatment
T3 construct: Unmodified Gibco hiPSCs were either differentiated in APEL2 + GSKi or maintained in mTeSR1, and SALL4 nuclear protein expression was monitored; endogenous in cells; host or cells: Gibco hiPSCs; XCL-1 SALL4 mock hiPSC clone
Description: as §1

XCL-1 hiPSC CRBN KO/KI [5] = assay: LPM differentiation assay (FOXF1 high content imaging), XCL-1 CRBN KO/KI clone; assay type: cell-based, human; conditions: for IC50: Homo sapiens, 48 h, XCL-1 CRBN KO/KI, % FOXF1+ cells after 2 d in APEL2+GSKi, read-out: IC50 (±SEM) in LPM differentiation assay
Description: On the day after seeding, the medium was replaced with 100 µL/well of mTeSR-1 (control) or APEL2 + GSKi containing either DMSO or diluted compounds (for a final DMSO concentration of 0.2%). The same conditions were replenished the following day for a total of 2 d of differentiation, and the following day (3 d after seeding), the medium was aspirated, and hiPSCs were fixed in 10% NBF for 15 min at room temperature. For time-course experiments, cells were fixed at the specified intervals after the start of LPM differentiation.
as §9
Cells were washed in blocking buffer for >6 hours at 4 °C and subsequently incubated in secondary antibody diluted in antibody buffer overnight at 4 °C. Secondary antibodies were washed out in antibody buffer for >4 h at 4 °C, and hiPSCs were counterstained with DAPI (Fisher) at 10 µg/mL in DPBS-T for 2 h. hiPSCs were washed in DPBS-T for >2 h at 4 °C, and immediately before imaging, the DPBS-T was replaced with DPBS. Initial characterization of LPM differentiation by immunofluorescence was carried out using the A1R confocal microscope (Nikon) equipped with 10X objective, and automated object analysis was carried out using NIS Elements v5 software (Nikon). Chemical dose-response experiments and experiments examining the time-course of marker expression during LPM differentiation were imaged at 10X magnification using the Cellomics ArrayScan or CellInsight Cx7 LZR High Content Screening Platform and HCS Studio Cell Analysis Software (Thermo Fisher). An artificial threshold was uniformly applied to all images to generate the percentage of DAPI+ nuclei that stained positively for FOXF1 or NANOG. Thresholding for FOXF1 and T was performed relative to undiffer-entiated hiPSCs, and thresholding for SALL4 and OCT4 was performed relative to a non-expressing cell type (human primary endothelial cells). Settings for image acquisition and processing were uniformly applied between XCL-1 clones. The capacity of all XCL-1 clones and Gibco hiPSCs to undergo LPM differentiation in the high content format was assessed by FOXF1 and NANOG immunostaining. […] Experiments were repeated in quadruplicate unless otherwise stated, and data are presented as mean ± SEM. Nonlinear regression analysis was performed using the 4-parameter [inhibitor]-vs-response curve fitting algorithm in Prism (GraphPad).
Using CRISPR/Cas9-mediated gene editing, both CRBN alleles were knocked out in XCL-1 hiPSCs cells, followed by the insertion at the AAVS1 locus of a transgene encoding human CRBN with E377V and V388I mutations (clone hereafter referred to as CRBN KO/KI).

XCL-1 hiPSC SALL4^G416A [6] = assay: cells; assay type: cell-based; conditions: Homo sapiens, 72 h; XCL-1 SALL4^G416A; 3 d differentiation; read-out: IC50 (±SEM) in SOX17 differentiation assay
Description: (§2) The assay was carried out as previously described with continuous dosing of chemical for 3 total days of differentiation. SOX17 staining and DAPI counter-staining were carried out as described, and assays were imaged via high content imaging. […]
(§3) Supplementary Figure 7. Dose-response characterization of the influence […]
(§4) of XCL-1 clones. High content imaging analysis of XCL-1 hiPSC clones that were differentiated for 3 days in the presence of compound and subsequently stained for SOX17 and counter-stained with DAPI. Untreated DMSO control is omitted. Data represent the mean +/- SEM %SOX17 cells
(§5) (relative to control) from 4 independent experiments. Nonlinear regression […]
(§6) variable slope plotting tool in GraphPad Prism. A-C: Dose-response […]
(§7) in cereblon mock (hollow circles) or CRBN KO/KI (red filled circles) clones. D- […]

XCL-1 hiPSC SALL4 Mock [7] = assay: cells; assay type: cell-based; conditions: Homo sapiens, 72 h; XCL-1 SALL4 Mock; 3 d differentiation; read-out: IC50 (±SEM) in SOX17 differentiation assay
Description: as §2, §3, §4, §5, §6, §7

XCL-1 hiPSC CRBN KO/KI [8] = assay: cells; assay type: cell-based; conditions: Homo sapiens, 72 h; XCL-1 CRBN KO/KI; 3 d differentiation; read-out: IC50 (±SEM) in SOX17 differentiation assay
Description: as §2, §3, §4, §5, §6, §7

XCL-1 hiPSC CRBN Mock [9] = assay: cells; assay type: cell-based; conditions: Homo sapiens, 72 h; XCL-1 CRBN Mock; 3 d differentiation; read-out: IC50 (±SEM) in SOX17 differentiation assay
Description: as §2, §3, §4, §5, §6, §7

SALL4 [10] = biological target: T3, SALL4; assay: SALL4 nuclear protein expression (MFI) by high content imaging, Gibco hiPSCs; assay type: cell-based
Description: as §1

T3 sequence (Q9UJQ4 whole entry): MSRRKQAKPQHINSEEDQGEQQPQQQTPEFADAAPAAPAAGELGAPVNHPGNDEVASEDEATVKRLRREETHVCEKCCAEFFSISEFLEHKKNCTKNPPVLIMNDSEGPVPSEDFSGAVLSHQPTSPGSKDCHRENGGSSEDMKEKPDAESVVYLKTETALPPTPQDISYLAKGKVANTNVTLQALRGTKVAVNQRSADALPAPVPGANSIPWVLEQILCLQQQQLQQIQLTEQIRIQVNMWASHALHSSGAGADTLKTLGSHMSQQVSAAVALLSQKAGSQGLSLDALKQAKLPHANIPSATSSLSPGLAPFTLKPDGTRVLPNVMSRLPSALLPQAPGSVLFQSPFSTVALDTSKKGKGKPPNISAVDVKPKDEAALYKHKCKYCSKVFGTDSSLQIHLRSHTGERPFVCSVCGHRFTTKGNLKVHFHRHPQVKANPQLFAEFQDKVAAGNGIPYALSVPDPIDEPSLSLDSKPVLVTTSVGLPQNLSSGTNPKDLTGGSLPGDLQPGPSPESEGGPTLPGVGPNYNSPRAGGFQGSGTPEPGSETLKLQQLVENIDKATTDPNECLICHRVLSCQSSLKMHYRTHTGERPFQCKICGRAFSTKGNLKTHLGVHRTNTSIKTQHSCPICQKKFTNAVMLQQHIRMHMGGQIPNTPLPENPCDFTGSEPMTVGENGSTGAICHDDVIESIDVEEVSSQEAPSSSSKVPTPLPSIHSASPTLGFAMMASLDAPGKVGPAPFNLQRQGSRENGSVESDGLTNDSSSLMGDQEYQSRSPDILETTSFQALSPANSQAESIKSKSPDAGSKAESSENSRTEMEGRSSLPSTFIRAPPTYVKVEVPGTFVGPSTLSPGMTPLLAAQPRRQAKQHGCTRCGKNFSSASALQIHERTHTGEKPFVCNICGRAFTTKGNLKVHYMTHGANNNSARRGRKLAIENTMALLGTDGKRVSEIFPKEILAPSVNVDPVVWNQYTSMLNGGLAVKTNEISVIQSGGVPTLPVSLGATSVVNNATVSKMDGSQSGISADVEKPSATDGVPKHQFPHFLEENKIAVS
T3 sequence (Q96SW2 whole entry): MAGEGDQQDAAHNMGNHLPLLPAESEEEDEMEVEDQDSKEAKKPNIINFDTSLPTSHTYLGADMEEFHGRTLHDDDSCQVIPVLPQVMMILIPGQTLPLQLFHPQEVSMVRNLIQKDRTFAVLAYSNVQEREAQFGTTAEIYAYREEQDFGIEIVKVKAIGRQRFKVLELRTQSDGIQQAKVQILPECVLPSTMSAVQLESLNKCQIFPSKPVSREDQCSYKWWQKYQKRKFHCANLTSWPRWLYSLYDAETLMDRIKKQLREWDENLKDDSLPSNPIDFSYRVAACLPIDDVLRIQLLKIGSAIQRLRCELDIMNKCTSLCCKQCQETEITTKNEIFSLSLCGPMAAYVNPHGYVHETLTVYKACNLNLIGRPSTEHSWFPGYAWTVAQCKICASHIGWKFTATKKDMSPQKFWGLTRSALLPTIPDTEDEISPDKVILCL
T3 sequence (Q16531 whole entry partner): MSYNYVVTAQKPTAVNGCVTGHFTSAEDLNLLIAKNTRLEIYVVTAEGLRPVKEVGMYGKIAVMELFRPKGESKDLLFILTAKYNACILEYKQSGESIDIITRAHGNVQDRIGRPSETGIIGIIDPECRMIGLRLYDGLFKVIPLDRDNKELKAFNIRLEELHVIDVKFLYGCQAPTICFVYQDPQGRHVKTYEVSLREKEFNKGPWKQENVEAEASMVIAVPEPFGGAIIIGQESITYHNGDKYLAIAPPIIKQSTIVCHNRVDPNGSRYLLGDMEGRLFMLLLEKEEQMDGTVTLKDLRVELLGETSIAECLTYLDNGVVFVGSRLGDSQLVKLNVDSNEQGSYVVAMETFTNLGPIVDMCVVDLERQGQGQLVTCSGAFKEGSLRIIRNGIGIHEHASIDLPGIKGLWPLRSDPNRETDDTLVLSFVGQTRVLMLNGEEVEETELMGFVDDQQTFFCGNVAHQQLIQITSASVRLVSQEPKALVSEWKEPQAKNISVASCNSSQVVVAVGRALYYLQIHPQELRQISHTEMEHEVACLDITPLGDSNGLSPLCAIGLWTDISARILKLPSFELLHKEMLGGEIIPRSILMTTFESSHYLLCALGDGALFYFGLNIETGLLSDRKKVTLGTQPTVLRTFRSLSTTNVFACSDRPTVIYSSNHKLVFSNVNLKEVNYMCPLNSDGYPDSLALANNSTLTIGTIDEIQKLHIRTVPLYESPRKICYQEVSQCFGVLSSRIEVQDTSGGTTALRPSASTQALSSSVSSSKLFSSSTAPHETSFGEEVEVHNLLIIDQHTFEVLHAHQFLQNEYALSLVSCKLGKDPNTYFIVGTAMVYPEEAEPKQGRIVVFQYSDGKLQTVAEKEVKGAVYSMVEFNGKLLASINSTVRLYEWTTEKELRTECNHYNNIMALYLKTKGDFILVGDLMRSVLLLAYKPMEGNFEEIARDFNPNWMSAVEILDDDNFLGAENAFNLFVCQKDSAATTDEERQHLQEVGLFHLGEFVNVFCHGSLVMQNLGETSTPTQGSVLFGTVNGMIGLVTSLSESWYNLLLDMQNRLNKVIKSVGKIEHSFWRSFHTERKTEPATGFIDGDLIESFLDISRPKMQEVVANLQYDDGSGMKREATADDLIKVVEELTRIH
T1 sequence (Q96SW2 whole entry partner): as the sequence (Q96SW2 whole entry) above
T1 sequence (Q16531 whole entry partner): as the sequence (Q16531 whole entry partner) above
T1 sequence (Q9UJQ4 whole entry G416A): as the sequence (Q9UJQ4 whole entry) above, with G416A counted along it
T2 sequence (Q96SW2 whole entry partner): as the sequence (Q96SW2 whole entry) above
T2 sequence (Q16531 whole entry partner): as the sequence (Q16531 whole entry partner) above
T2 sequence (Q9UJQ4 whole entry): as the sequence (Q9UJQ4 whole entry) above

Row | effect on SALL4 MFI (SALL4^G416A) | IC50 (XCL-1 hiPSC SALL4^G416A [1]) [nM] | SALL4 degradation in human cells expressing CRBN with the V388I mutation (human SALL4) | IC50 (Gibco hiPSCs) [nM] | effect on SALL4 MFI (SALL4 [4]) | IC50 (XCL-1 hiPSC CRBN KO/KI [5]) [nM] | IC50 (XCL-1 hiPSC SALL4^G416A [6]) [nM] | IC50 (XCL-1 hiPSC CRBN KO/KI [8]) [nM] | magnitude of the decrease in SALL4 MFI (SALL4 [10]; Gibco hiPSCs, 8 h of treatment, dose-response) | Compound | inhibition of LPM differentiation at the two highest concentrations tested (XCL-1 hiPSC SALL4^G416A [1]; SALL4^G416A clone) | IC50 (XCL-1 hiPSC CRBN Mock [2]) [nM] | IC50 (XCL-1 hiPSC SALL4 Mock [3]) [nM] | inhibition of LPM differentiation at the highest concentration tested (XCL-1 hiPSC CRBN KO/KI [5]; 50 µM, CRBN KO/KI clone) | IC50 (XCL-1 hiPSC SALL4 Mock [7]) [nM] | IC50 (XCL-1 hiPSC CRBN Mock [9]) [nM] | time-course of SALL4 MFI (SALL4 [10]; 20 µM, Gibco hiPSCs in mTeSR1 or APEL2+GSKi, 2, 8 and 24 h after dosing)
1 | unchanged | > 50000 | failed to induce SALL4 degradation | 10 ± 10 | potently reduced SALL4 MFI | > 50000 | > 50000 | > 50000 | ~ 55% | Nc1cccc2c1C(=O)N(C1CCC(=O)NC1=O)C2=O (stereo not shown) [Pomalidomide, pomalidomide] | modest inhibition of LPM differentiation | 20 ± 10 | 90 ± 90 | inhibited LPM differentiation albeit not to the same magnitude as control hiPSCs | 10 ± 10 | 20 ± 20 | rapid decline in SALL4 MFI 2 h after dosing
2 |  |  |  | 160 ± 80 |  |  |  |  |  | Nc1cccc2c1CN(C1CCC(=O)NC1=O)C2=O (stereo not shown) [Lenalidomide, lenalidomide] |  |  |  |  |  |  | 
3 |  | 510 ± 100 |  | 2760 ± 5580 |  | 790 ± 400 |  |  |  | NC(=O)c1ccc(-c2nc(-c3ccc4c(c3)OCO4)c(-c3ccccn3)[nH]2)cc1 [SB431542] |  | 650 ± 180 | 630 ± 170 |  |  |  | 
